# Assay results reported in patent US20250064801A1, “USE OF 5-AMINO-2,3-DIHYDRO-1,4-PHTHALAZINEDIONE IN THE TREATMENT OF CONGENITAL MUSCULAR DYSTROPHIES” (METROPHARM AG, priority 2022, published 2025).
# Tests used:
# [1] = system: musculus extensor digitorum longus (EDL) muscle in the mdx mouse; test: Contractile properties (maximum force) of the musculus extensor digitorum longus measured in vitro at end of treatment of mdx mice; assay type: in vivo
# Text: The mdx mouse model is the most widely used and investigated animal model in the research of Duchenne muscular dystrophy since the early 1980ies. These mice are characterized by muscle weakness, histological evidence of myopathy and elevated serum levels of creatin kinase (CK) (cf. Bulfield et al. (1984) PNAS 81: 1189-1192). Herein, CK levels are a marker of the breakdown of CK-rich tissues such as skeletal muscles (rhabdomyolysis). The mutation in the mdx mouse is a nonsense mutation (C-to-T transition) in exon 23 that aborts full-length dystrophin expression (cf. Sicinski et al. (1989) Science 244: 1578-1580). Symptoms are moderate and the mean lifespan is reduced by about 25%. During the first two weeks after birth mdx mice are indistinguishable from wild-type mice. Then skeletal muscle necrosis starts until week 6 after birth and thereupon enters in a plateau phase characterized by muscle hypertrophy. […] Many aged mdx mice develop spontaneous sarcoma.
# Mice were identified by ear tags. […] These cages were assigned randomly to treatment groups. Animals were monitored daily for changes in behavior.
# The experiments were carried out by AGADA Biosciences (Halifax, Canada) on behalf of the applicant. All treatment substances were provided by the applicant. All treatment groups started with 15 mice. Treatment was blinded.
# Contractile properties were measured in vitro on the right musculus extensor digitorum longus (EDL) at the end of the study. The mice were anesthetized using ketamine and xylamine. The EDL muscle of the right hindlimb was removed from each mouse and immersed in individual carbogenated baths (95% O2, 5% CO2) containing Ringer's solution (pH 7.4) at 25° C. The muscle was flanked by two electrodes. Using non-fatiguing twitches, the muscle was maintained at 10 mN for force generation. The maximal force was measured with the muscle held at 10 mN. The muscle was stimulated with an electrode to elicit tetanic contractions that are separated by 2-minute rest intervals. […] This plateau was considered the maximum force (mN) generated by the muscle. The cross-sectional area of the muscle was measured based on muscle mass, muscle length, and tissue density. Finally, the muscle specific force (kN/m^2) was calculated based on the cross-sectional area of the muscle and was converted in relation to the individual body weight ([…]).
# [2] = Body weight of mdx mice measured weekly over the treatment period; conditions: 1.0 mg/kg (prednisolone oral syrup, deflazacort IP)
# Protocol: Animals were received in 2 cohorts (n=49-56; 7-8 per group). Mice were sorted into a total of five treatment groups. The mice of the control groups were wild type C57BL/10ScSnJ and the dmx strain C57BL/10ScSn-Dmdmdx/J. The animals were acclimatized upon arrival to the animal facility for 7 days, housed in cages with up to 5 mice per cage. During the study, 12-hour light/11-hour dark cycles were maintained. Room temperature was maintained between 20° C. and 23° C. Food and water were available ad libitum for the duration of the study. Mice were identified by ear tags. Randomization was done based on the average body weight of the cage. These cages were assigned randomly to treatment groups. Animals were monitored daily for changes in behavior. […]
# All treatment compounds were administered via intraperitoneal (IP) injection, with exception of prednisolone that was delivered via oral syrup. […] Once the injection was delivered, the mouse was monitored for a couple of minutes for any adverse side effects. […] Once the complete treatment was delivered the mouse was placed back into its cage and monitored for a couple of minutes for any adverse side effects.
# The body weight was measured weekly starting after acclimation of the animals to the facility and the beginning of the treatment (5 weeks of age). […]
# [3] = mdx mice, 1.0 mg/kg (prednisolone oral syrup, deflazacort IP)
# [4] = mdx mice, 1.0 mg/kg (prednisolone oral syrup, deflazacort IP), right EDL in Ringer's solution 25° C., mean ±SEM
Compound,"percentual improvement of maximum force in comparison to the untreated mdx mice control group (set as 100%) [1, 3] [%]","maximum force generated by the muscle (EDL), related to body weight [1, 4] [mN/kg]",difference in body weight (diminished increase) ([2]; from about week 6),"body weight increase over the treatment ([2]; weeks of age 5-10, starting at about week 6)","dose dependence of the maximum force generated by the muscle ([1]; mouse, in vivo)","maximum force generated by the muscle (EDL), related to body weight ([1]; mouse, in vivo, ip, 5 mg/kg) [mN/kg]","percentual improvement of maximum force in comparison to the untreated mdx mice control group (set as 100%) ([1]; mouse, in vivo, ip, 5 mg/kg) [%]"
C[C@]12C=CC(=O)C=C1CC[C@@H]1[C@@H]2[C@@H](O)C[C@@]2(C)[C@H]1CC[C@]2(O)C(=O)CO [prednisolone],18.0,107.5±7.2,about 7%,significantly diminished body weight increase,–,–,–
CC(=O)OCC(=O)[C@@]12N=C(C)O[C@@H]1C[C@H]1[C@@H]3CCC4=CC(=O)C=C[C@]4(C)[C@H]3[C@@H](O)C[C@@]12C [deflazacort],6.2,96.8±5.2,–,–,–,–,–
"Nc1cccc2c(=O)[nH][nH]c(=O)c12.[Na] [5-amino-2,3-dihydro-1,4-phthalazinedione sodium salt]",–,–,–,–,dose-dependent improvement,106.1±8.0,16.4
